Some test systems named below: OVCAR-5; NCI/ADR-RES; HOP-62; MDA-MB-231; A549; MOLT-4; MDA-MB-435; CAKI-1; ACHN; NCI-H460; HCC 2998; SK-MEL-28; HL-60; MCF7; TK-10; SK-MEL-5; 786-0; UACC-257; K562; SR.
Experiment in all cases: growth of human tumour cells (NCI), 48 h

These results are taken from ChEMBL document CHEMBL1201862, “PubChem BioAssay data set” (2004).

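Where inhibition never reached the appropriate level, the endpoint shown equals the highest concentration tested. Otherwise, values were interpolated linearly from a five-concentration, 48-hour dose response in 96-well plates. GI50 is the concentration that inhibits growth by half.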 Active and inactive are the calls of the source. Rule as the data show it: active = GI50 up to about 1.1 µM and inactive = higher.

For `O=[N+]([O-])c1ccc(-n2nc3ccc4c(no[n+]4[O-])c3n2)cc1`, the GI50 is > 100 µM (inactive) in the test on OVCAR-5; > 100 µM (inactive) with NCI/ADR-RES; 35.2 µM (inactive) in the test on HOP-62; > 100 µM (inactive) in the test with MDA-MB-231; 12.4 µM (inactive) in the test with A549; 74.6 µM (inactive) in the test with MOLT-4. In addition, the GI50 in the test on MDA-MB-435 is > 100 µM (inactive); with CAKI-1, > 100 µM (inactive); in the test with ACHN, 7.11 µM (inactive); in the test on NCI-H460, 33.2 µM (inactive); with HCC 2998, > 100 µM (inactive); in the test on SK-MEL-28 it was > 100 µM (inactive). The GI50 with HL-60 was 7.35 µM (inactive); in the test with MCF7, 82 µM (inactive); in the test with TK-10, > 100 µM (inactive); in the test with SK-MEL-5, 80.2 µM (inactive); in the test on 786-0, > 100 µM (inactive); in the test with UACC-257 it was > 100 µM (inactive). For the same compound, the GI50 in the test with K562 and in the test on SR was > 100 µM (inactive) each time.

As to `O=C(O)c1ccc(NCc2nc3cc4ccccc4cc3[nH]2)cc1`, the GI50 in the test with OVCAR-5, with NCI/ADR-RES, in the test with HOP-62, with MDA-MB-231, with A549 and in the test with MOLT-4 was > 100 µM (inactive) each time. Also, the GI50 in the test with MDA-MB-435 is > 100 µM (inactive); in the test on CAKI-1 it was > 100 µM (inactive); with ACHN, > 100 µM (inactive); with NCI-H460, > 100 µM (inactive); in the test on HCC 2998, 87.9 µM (inactive); in the test with SK-MEL-28, 5.21 µM (inactive). Besides, the GI50 was > 20.5 µM (inactive) in the test on HL-60; 2.81 µM (inactive) in the test with MCF7; > 100 µM (inactive) in the test with TK-10; > 21.4 µM (inactive) in the test with SK-MEL-5; > 100 µM (inactive) with 786-0; 2.63 µM (inactive) with UACC-257. For the same compound, the GI50 in the test with K562 and in the test on SR was > 100 µM (inactive) each time.

With `CCOC(=O)c1c(C)[n+]([O-])c2cc(Cl)c(Cl)cc2[n+]1[O-]`, the GI50 in the test with OVCAR-5 is 43.6 µM (inactive); with NCI/ADR-RES, 23.8 µM (inactive); in the test on HOP-62, 21 µM (inactive); with MDA-MB-231, 21.1 µM (inactive); in the test with A549, 14.6 µM (inactive); with MOLT-4, 16.2 µM (inactive). Also, the GI50 was 18.6 µM (inactive) in the test on MDA-MB-435; 18 µM (inactive) with CAKI-1; 29.3 µM (inactive) in the test on ACHN; 16.3 µM (inactive) in the test on NCI-H460; 13.7 µM (inactive) with HCC 2998; 29.4 µM (inactive) with SK-MEL-28. Besides, the GI50 with HL-60 was < 0.01 µM (active); in the test on MCF7, 32.5 µM (inactive); with TK-10, 18.1 µM (inactive); in the test on SK-MEL-5 it was 16.7 µM (inactive); in the test with 786-0, 28.3 µM (inactive); in the test with UACC-257 it was 16.9 µM (inactive). Further, the GI50 in the test with K562 is 31.4 µM (inactive); with SR it was 8.02 µM (inactive).

`O=C1OCC2=C1C(c1ccc3c(c1)OCO3)c1cc3c(cc1O2)OCO3` (stereo not given): the GI50 in the test with OVCAR-5 is 7.48 µM (inactive); in the test with NCI/ADR-RES, 0.255 µM (active); in the test with HOP-62, 0.851 µM (active); with MDA-MB-231, 0.813 µM (active); with A549 it was 0.897 µM (active); in the test on MOLT-4 it was 0.374 µM (active). The GI50 is 0.0708 µM (active) in the test on MDA-MB-435; 0.807 µM (active) in the test with CAKI-1; 3.27 µM (inactive) in the test on ACHN; 0.522 µM (active) in the test on NCI-H460; 4.42 µM (inactive) with HCC 2998; 1.72 µM (inactive) with SK-MEL-28. Also, the GI50 in the test on HL-60 was 0.134 µM (active); in the test with MCF7 it was 0.341 µM (active); with TK-10 it was 5.81 µM (inactive); with SK-MEL-5, 0.486 µM (active); in the test on 786-0, 0.785 µM (active); with UACC-257 it was 5.13 µM (inactive). The GI50 in the test with K562 was 0.269 µM (active); in the test on SR, 0.19 µM (active).

As to `COc1cc(C(=O)NC2CCc3cc(OC)c(OC)c(OC)c3-c3ccc(OC)c(=O)cc32)cc(OC)c1OC` (stereo not given), the GI50 is 2.75 µM (inactive) in the test with OVCAR-5; 18.2 µM (inactive) in the test with NCI/ADR-RES; 0.471 µM (active) in the test on HOP-62; 0.0306 µM (active) with MDA-MB-231; 0.431 µM (active) in the test on A549; 0.0451 µM (active) in the test on MOLT-4. Further, the GI50 was 0.0292 µM (active) in the test with MDA-MB-435; 1.15 µM (inactive) in the test on CAKI-1; 2.65 µM (inactive) in the test with ACHN; 0.143 µM (active) with NCI-H460; 0.0776 µM (active) in the test with HCC 2998; 0.192 µM (active) with SK-MEL-28. Moreover, the GI50 in the test on HL-60 is 0.0259 µM (active); in the test on MCF7, < 0.0176 µM (active); with TK-10, 1.49 µM (inactive); in the test with SK-MEL-5 it was 0.0553 µM (active); in the test on 786-0, 0.288 µM (active); with UACC-257, 0.0938 µM (active). Moreover, the GI50 in the test with K562 was 0.0403 µM (active); in the test on SR it was 0.0249 µM (active).

As to `Oc1c(Br)cc(/C=C/c2ccnc(/C=C/c3cc(Br)c(O)c(Br)c3)c2)cc1Br`, the GI50 is 25.5 µM (inactive) with OVCAR-5; 31.6 µM (inactive) in the test on NCI/ADR-RES; 34.4 µM (inactive) with HOP-62; 21.9 µM (inactive) in the test on MDA-MB-231; 23.6 µM (inactive) in the test with A549; 21 µM (inactive) in the test on MOLT-4. Further, the GI50 in the test on MDA-MB-435 is 26.7 µM (inactive); in the test with CAKI-1, 35.5 µM (inactive); in the test with ACHN, 28.4 µM (inactive); in the test on NCI-H460, 12.6 µM (inactive); in the test on HCC 2998 it was 25.8 µM (inactive); in the test on SK-MEL-28 it was 39 µM (inactive). Further, the GI50 is 14.5 µM (inactive) in the test on HL-60; 24.2 µM (inactive) with MCF7; 27.2 µM (inactive) in the test on TK-10; 19.1 µM (inactive) in the test on SK-MEL-5; 18.2 µM (inactive) in the test on 786-0; 26.2 µM (inactive) with UACC-257. The GI50 in the test with K562 is 24.2 µM (inactive); with SR, 17.8 µM (inactive).

Take `COC(=O)C(=O)c1cc2ccccc2n1S(=O)(=O)c1ccccc1`: the GI50 with OVCAR-5, with NCI/ADR-RES, in the test with HOP-62, with MDA-MB-231, with A549 and with MOLT-4 was > 100 µM (inactive) each time. For the same compound, the GI50 with MDA-MB-435, in the test with CAKI-1, in the test with ACHN, in the test with NCI-H460, in the test with HCC 2998 and with SK-MEL-28 was > 100 µM (inactive) in each case. For the same compound, the GI50 in the test on HL-60, in the test on MCF7, in the test with TK-10, in the test on SK-MEL-5, with 786-0 and in the test with UACC-257 was > 100 µM (inactive) in each case. For the same compound, the GI50 with K562 and in the test with SR was > 100 µM (inactive) throughout.

In the case of `COc1ccc(C(=O)/C=C/c2ccc(OCCCCCCCCCCOc3ccc(/C=C/C(=O)c4ccc(OC)c(OC)c4)cc3)cc2)c(OC)c1`, the GI50 in the test on OVCAR-5, in the test on NCI/ADR-RES, in the test with HOP-62, with MDA-MB-231, in the test on A549 and with MOLT-4 was > 100 µM (inactive) throughout. For the same compound, the GI50 in the test on MDA-MB-435, in the test on CAKI-1, in the test on ACHN, with NCI-H460, with HCC 2998 and in the test with SK-MEL-28 was > 100 µM (inactive) in each case. In addition, the GI50 with HL-60, with MCF7, in the test on TK-10, with SK-MEL-5, in the test on 786-0 and in the test on UACC-257 was > 100 µM (inactive) each time. Also, the GI50 in the test with K562 and with SR was > 100 µM (inactive) in each case.

For the compound `C/C(=N\NC(=S)N1CCCC1)c1nc2cccnc2[nH]1`, the GI50 in the test on OVCAR-5 is 0.457 µM (active); with NCI/ADR-RES, 0.335 µM (active); in the test with HOP-62, 0.356 µM (active); with MDA-MB-231, 16.5 µM (inactive); in the test with A549 it was 0.223 µM (active); with MOLT-4, 0.171 µM (active). Moreover, the GI50 with MDA-MB-435 was 0.416 µM (active); in the test on CAKI-1, 0.37 µM (active); in the test on ACHN, 0.0897 µM (active); in the test on NCI-H460, 0.0612 µM (active); with HCC 2998, 19.3 µM (inactive); in the test on SK-MEL-28, 0.349 µM (active). The GI50 in the test on HL-60 is 0.162 µM (active); in the test with MCF7, 0.33 µM (active); in the test with TK-10 it was 0.557 µM (active); in the test with SK-MEL-5, 0.217 µM (active); in the test with 786-0, 0.177 µM (active); in the test with UACC-257, 0.289 µM (active). In addition, the values for the GI50 in the test with K562 and with SR were 0.349 µM (active) and 0.202 µM (active), respectively.

As for `O=[N+]([O-])c1ccc(/N=N\c2c(O)c(S(=O)(=O)O)cc3cc(S(=O)(=O)O)ccc23)cc1`, the GI50 in the test with OVCAR-5 is > 100 µM (inactive); in the test with NCI/ADR-RES it was > 100 µM (inactive); in the test on HOP-62 it was 88.5 µM (inactive); in the test with MDA-MB-231, > 100 µM (inactive); in the test on A549, > 100 µM (inactive); in the test on MOLT-4 it was > 100 µM (inactive). Further, the GI50 in the test on MDA-MB-435, in the test on CAKI-1, in the test on ACHN, in the test on NCI-H460, with HCC 2998 and with SK-MEL-28 was > 100 µM (inactive) each time. Moreover, the GI50 with HL-60, in the test with MCF7, in the test on TK-10, with SK-MEL-5, with 786-0 and in the test with UACC-257 was > 100 µM (inactive) in each case. In addition, the GI50 in the test on K562 and in the test with SR was > 100 µM (inactive) in each case.
